In patent US12098433B2 (priority 2018, dated 2024):
“Also recorded” adds a separate entry of the source. Read-outs that look alike come from different tables or passages of the source.

Tests used:
[1] = tested on: atzR (via atzABC conversion of atrazine to cyanuric acid); type: biochemical, E. coli extracts; Pseudomonas ADP-1 pathway; settings: for time at which ON is distinguished from OFF (kinetic divergence): 100 μM atrazine; for sensor response to triazines (specificity): FIG. 19C
[2] = tested on: unregulated cell-free protein synthesis reaction (cell-free transcription and translation); type: biochemical, E. coli
[3] = tested on: atzR (via atzABC conversion of atrazine to cyanuric acid); assay: Colorimetric atrazine sensor (C23O reporter), freeze-dried reactions; type: biochemical, E. coli extracts; Pseudomonas ADP-1 pathway
[4] = tested on: AtzR transcription factor; assay: Cell-free cyanuric acid sensor: AtzR-regulated sfGFP reporter; type: biochemical, Pseudomonas sp. ADP-1; settings: for fold-induction of sfGFP: 100 μM
[5] = tested on: AtzR transcription factor; assay: Cell-free cyanuric acid sensor with colorimetric catechol 2,3-dioxygenase reporter; type: biochemical, Pseudomonas sp. ADP-1; settings: 600 μM CYA in ON state; tubes with catechol at 30° C.
Description: FIG. 18. Proof-of-concept for field-deployable cyanuric acid sensing using a cell-free biosensor. (a) Optimized cell-free reactions are prepared without cyanuric acid (CYA), freeze-dried, and then rehydrated with unfiltered environmental water samples. (b) CYA in environmental water samples can be detected from freeze-dried cell-free reactions. […] (c) Time course comparisons of the OFF state from panel B, for the unfiltered environmental water samples that were not spiked with CYA. Pool water can be distinguished against lake water in less than one hour. […] CYA was added at a concentration of 600 μM in the ON state to a fresh cell-free reaction incubated at 30° C. and monitored for 90 minutes. […] Fluorescence in b and c is reported standardized to mean equivalent fluorescence (MEF) of fluorescein isothiocyanate based on a previously developed standard.
Finally, we aimed to validate if a visible output signal for the sensor could be generated without a plate reader to enable equipment-free detection of CYA from environmental samples. […] Because fluorescence of sfGFP is difficult to detect by the unaided eye, particularly in the early stages of the reaction, we replaced the coding sequence of the reporter plasmid instead with the enzyme catechol 2,3-dioxygenase (C23DO). […]

[6] = tested on: NarX / NarL two-component system
[7] = tested on: NarX / NarL two-component system; settings: colorimetric C32O reporter

## CCNc1nc(Cl)nc(NC(C)C)n1 [atrazine]
[1]
  calculated limit of detection above background: approximately 20 μM
  sensor response to triazines (specificity): capable of detecting
[1]; optimized sensor
  time at which ON is distinguished from OFF (kinetic divergence): approximately one hour
[1]; optimized sensor, listed as Atrazine
  time at which ON is distinguished from OFF (kinetic divergence): within one hour
[1]; doped at 100 μM, all enriched extracts plus blank extract
  detection by sensor: could detect
[1]; optimized sensor, dose-response curve FIG. 22E
  overall limit of detection (figure legend): around 20
[1]; read-out: half-maximal signal
  EC50: ~66 µM
[2]; 100 μM
  poisoning / inhibitory effect on cell-free protein synthesis (sfGFP): Minimal poisoning
[3]; 100 nM atrazine, three replicates, four-hour limit
  reactions changing color: one of the three reactions
[3]; freeze-dried, all three replicates turned on within four-hour limit
  limit of detection for the enzymatic reporter: 1

## O=c1[nH]c(=O)[nH]c(=O)[nH]1 [cyanuric acid]
[1]
  sensor response to triazines (specificity): capable of detecting
[4]; optimal 1 nM AtzR plasmid and 10 nM reporter plasmid, 4-hour incubation
  fold-induction of sfGFP: > 12 fold
[4]; reporter based on Promoter P2 (E. coli consensus −10 site), promoter screen
  fold-induction of sfGFP: ~8 fold
[4]; optimal plasmid concentrations
  linear operating range of dose-response: 0 to 100 µM
[5]
  time to production of yellow color (reporter activation): ≤ 1 h

## Nc1nc(N)nc(N)n1 [melamine]
[1]
  sensor response to triazines (specificity): unreactive
[2]; 100 μM
  poisoning / inhibitory effect on cell-free protein synthesis (sfGFP): Minimal poisoning

## O=[N+]([O-])O [nitrate]
[6]; 1 mM nitrate, absence of supplemental NarX
  sensor activation: activated
[6]; 1 mM nitrate, certain ratios of NarX- and NarL-enriched extracts
  detection by sensor: robust detection
[6]; optimal conditions, sfGFP reporter
  sensitivity of cell-free system: more sensitive than the environmental limit
[7]
  lowest concentration detected, visible by naked eye: 10 µM

## CC(C)Nc1nc(Cl)nc(NC(C)C)n1 [propazine]
[1]
  sensor response to triazines (specificity): weak activation; also recorded: capable of detecting
[2]
  poisoning / inhibitory effect on cell-free protein synthesis (sfGFP): Minimal poisoning
